Several values for one entry are separate records, joined by “and”; a condition that tells them apart may be missing. Identical values can stand only once.
Assays:
[1] = system: leup operon (leupeptin BGC) promoter in K. oxytoca ATCC 8724; experiment: GFP-based transcriptional reporter for the leup operon; type: cell-based, Klebsiella oxytoca; conditions: carbohydrate screen, M9 + casamino acid + 0.4% indicated sugar, 30 °C, 24 h
Text: We previously examined a panel of 84 clinical K. oxytoca isolates (including recently renamed Klebsiella michiganensis isolates) for the presence of either the leup operon or npsB, an NRPS of the tilimycin/tilivalline gene cluster. […] While the roles of tilivalline and tilimycin in hemorrhagic colitis are well studied[8],[9], the operon for leupeptin biosynthesis is “silent” in K. oxytoca under typical laboratory culture conditions (i.e., leupeptin production is undetectable). Therefore, our study commenced by exploring growth conditions required to trigger leupeptin biosynthesis in K. oxytoca. To achieve this, we generated a green fluorescent protein (GFP)-based reporter system to monitor leup transcription in K. oxytoca ATCC 8724 (recently renamed as Klebsiella michiganensis (ATCC 8724), Fig. 1a). We utilized λ-red recombineering techniques[38] to replace the first biosynthetic gene (leupA) of the leupeptin BGC with a GFP-spectinomycin resistance cassette. […] Consequently, conditions that elicit transcription of the leupeptin BGC can be monitored by GFP fluorescence intensity.
5 mL of the leupeptin reporter strain was cultured aerobically in 10 g/L of LB (Becton Dickinson), yeast extract, GAM (HiMedia Laboratories), horse liver extract (HiMedia Laboratories), malt extract (VWR), meat extract (HiMedia Laboratories), YPD (Dot Scienticifc), brain heart infusion (Becton Dickinson), porcine mucin (Sigma-Aldrich, M1778), clostridial (Becton Dickinson), TSB (VWR), or casamino acid supplemented (5 g/L, VWR) M9 minimal salts (MP Biomedicals) at 30 °C for 24 h at 250 rpm. Cultures were lysed via sonication, centrifuged, and 150 µL of the supernatants were aliquoted into black well clear bottom 96 well plates. GFP fluorescence measurements were performed on a BioTek Synergy H1 plate reader with an excitation wavelength of 488 nm and an emission wavelength of 525 nm. For the carbohydrate screen, the leupeptin reporter strain was cultured in M9 minimal medium (MPbio) supplemented with casamino acid (5 g/L, VWR) and 0.4% indicated sugar aerobically at 30 °C for 24 h at 250 rpm.

[2] = target: T1, histamine receptor H4 (HRH4) (Homo sapiens, UniProt Q9H3N8); experiment: PRESTO-Tango GPCR screen and dose-response; type: cell-based; conditions: replicate wells
T1 construct: expressed in transfected cells; host or cells: HTLA cells (HEK293 line stably expressing β-arrestin-TEV and tTA-Luciferase)
T1 sequence (Q9H3N8 whole entry): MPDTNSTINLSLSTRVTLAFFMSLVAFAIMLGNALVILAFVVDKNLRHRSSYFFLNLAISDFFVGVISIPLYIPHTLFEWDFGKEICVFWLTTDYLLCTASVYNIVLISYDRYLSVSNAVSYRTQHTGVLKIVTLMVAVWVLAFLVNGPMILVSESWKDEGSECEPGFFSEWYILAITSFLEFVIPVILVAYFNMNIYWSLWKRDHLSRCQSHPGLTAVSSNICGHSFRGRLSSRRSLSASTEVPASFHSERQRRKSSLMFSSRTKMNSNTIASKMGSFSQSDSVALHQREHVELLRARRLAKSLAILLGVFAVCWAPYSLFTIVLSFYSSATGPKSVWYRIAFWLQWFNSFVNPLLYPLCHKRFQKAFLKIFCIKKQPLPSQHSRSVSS
Experimental: (§1) The PRESTO-Tango analyses were performed as previously published. Briefly, HTLA cells, a HEK293 cell line that stably expresses β-arrestin-TEV and tTA-Luciferase (a kind gift from Gilad Barnea, Brown University), were plated in 96-well tissue culture plates (Eppendorf) in DMEM containing 10% FBS and 1% Penicillin/Streptomycin. One day after plating (after reaching approximately 90% confluence), 200 ng per well GPCR-Tango plasmids[37] in 20 μL DMEM were individually mixed with 400 ng polyethylenimine (Polysciences) in an equal volume of DMEM and incubated for 20 min at room temperature before adding the transfection mixture to the HTLA cells. 16-24 h after transfection, medium was replaced with 180 μL fresh DMEM containing 1% Penicillin/Streptomycin and 10 mM HEPES and 20 μL of 3 or 3-Homo to reach a final concentration of 100 μM. Supernatants were aspirated 20 h after stimulation and 50 μl per well of Bright-Glo solution (Promega) diluted 20-fold with PBS containing 20 mM HEPES was added into each well. After 15 min incubation at room temperature, luminescence was quantified using a Spectramax i3x microplate reader (Molecular Devices). Activation fold for each sample was calculated by dividing relative luminescence units (RLU) for each condition by RLUs from PBS control. Dose response curves of each chemical were performed in a similar way with varying the ligand concentration from 10^−4 M to 10^−15 M.

HRH2 = target: T2, HRH2 (Homo sapiens, UniProt P25021); experiment: PRESTO-Tango GPCR screen and dose-response; type: cell-based; conditions: replicate wells
T2 construct: expressed in transfected cells; host or cells: HTLA cells (HEK293 line stably expressing β-arrestin-TEV and tTA-Luciferase)
T2 sequence (P25021 whole entry): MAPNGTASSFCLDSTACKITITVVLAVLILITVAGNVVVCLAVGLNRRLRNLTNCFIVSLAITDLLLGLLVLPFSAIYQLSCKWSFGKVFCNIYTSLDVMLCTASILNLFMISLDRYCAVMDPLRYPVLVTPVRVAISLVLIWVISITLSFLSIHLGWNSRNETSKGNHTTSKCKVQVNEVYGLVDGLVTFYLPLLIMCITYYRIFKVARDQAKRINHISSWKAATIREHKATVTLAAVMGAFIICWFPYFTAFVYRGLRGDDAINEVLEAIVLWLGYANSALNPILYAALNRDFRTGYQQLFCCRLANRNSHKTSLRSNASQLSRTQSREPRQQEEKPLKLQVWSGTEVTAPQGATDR
Experimental: as §1

HRH1 = target: T3, HRH1 (Homo sapiens, UniProt P35367); experiment: PRESTO-Tango GPCR screen and dose-response; type: cell-based; conditions: replicate wells
T3 construct: expressed in transfected cells; host or cells: HTLA cells (HEK293 line stably expressing β-arrestin-TEV and tTA-Luciferase)
T3 sequence (P35367 whole entry): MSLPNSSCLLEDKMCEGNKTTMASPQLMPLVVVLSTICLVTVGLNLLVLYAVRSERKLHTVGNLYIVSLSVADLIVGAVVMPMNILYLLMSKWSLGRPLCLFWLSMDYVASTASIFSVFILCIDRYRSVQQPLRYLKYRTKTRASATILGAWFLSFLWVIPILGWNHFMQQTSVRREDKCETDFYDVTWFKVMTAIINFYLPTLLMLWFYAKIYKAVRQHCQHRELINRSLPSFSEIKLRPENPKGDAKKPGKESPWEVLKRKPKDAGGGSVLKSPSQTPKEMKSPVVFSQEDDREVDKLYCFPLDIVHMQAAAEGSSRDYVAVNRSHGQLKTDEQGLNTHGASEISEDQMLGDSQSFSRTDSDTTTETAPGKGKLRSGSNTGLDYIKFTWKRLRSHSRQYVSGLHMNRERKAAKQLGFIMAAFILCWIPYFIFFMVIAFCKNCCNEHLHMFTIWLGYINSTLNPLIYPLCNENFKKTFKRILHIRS
Experimental: as §1

SMILES: O[C@@H]1[C@@H](O)[C@@H](O)CO[C@H]1O [Arabinose]
- GFP fluorescence, GFP Strain + Media ([1]; leup GFP reporter strain): 9484 RFU
- GFP fluorescence, WT + Media ([1]; wildtype K. oxytoca without reporter (background)): 6365 RFU

SMILES: NCCc1c[nH]cn1 [Histamine, histamine, reference compound]
- HRH4 dose-response raw reporter signal (Fig. 5b source data) ([2]; Log(10)Conc (M) -5): 20161 and 21099
- HRH4 dose-response raw reporter signal (Fig. 5b source data) ([2]; Log(10)Conc (M) -6): 15058 and 15677
- HRH4 dose-response raw reporter signal (Fig. 5b source data) ([2]; Log(10)Conc (M) -7): 3788 and 3862
- HRH4 dose-response raw reporter signal (Fig. 5b source data) ([2]; Log(10)Conc (M) -8): 887 and 1023
- HRH4 dose-response raw reporter signal (Fig. 5b source data) ([2]; Log(10)Conc (M) -9): 590 and 625
- HRH4 dose-response raw reporter signal (Fig. 5b source data) ([2]; Log(10)Conc (M) -10): 537 and 513
- HRH4 dose-response raw reporter signal (Fig. 5b source data) ([2]; Log(10)Conc (M) -11): 475
- HRH4 dose-response raw reporter signal (Fig. 5b source data) ([2]; Log(10)Conc (M) -12): 433 and 407
- HRH4 dose-response raw reporter signal (Fig. 5b source data) ([2]; Log(10)Conc (M) -13): 377 and 419
- HRH4 dose-response raw reporter signal (Fig. 5b source data) ([2]; Log(10)Conc (M) -14): 545 and 448
- HRH4 dose-response raw reporter signal (Fig. 5b source data) ([2]; Log(10)Conc (M) -15): 245
- HRH2 dose-response raw reporter signal (Fig. 5b source data) (HRH2; Log(10)Conc (M) -4): 3877 and 3933 and 3726
- HRH2 dose-response raw reporter signal (Fig. 5b source data) (HRH2; Log(10)Conc (M) -5): 699 and 758 and 693
- HRH2 dose-response raw reporter signal (Fig. 5b source data) (HRH2; Log(10)Conc (M) -6): 144 and 156 and 139
- HRH2 dose-response raw reporter signal (Fig. 5b source data) (HRH2; Log(10)Conc (M) -7): 56 and 88 (2×)
- HRH2 dose-response raw reporter signal (Fig. 5b source data) (HRH2; Log(10)Conc (M) -8): 94 and 91 and 50
- HRH2 dose-response raw reporter signal (Fig. 5b source data) (HRH2; Log(10)Conc (M) -9): 62 and 56 and 65
- HRH2 dose-response raw reporter signal (Fig. 5b source data) (HRH2; Log(10)Conc (M) -10): 59 and 68 and 77
- HRH2 dose-response raw reporter signal (Fig. 5b source data) (HRH2; Log(10)Conc (M) -11): 53 and 68 and 38
- HRH2 dose-response raw reporter signal (Fig. 5b source data) (HRH2; Log(10)Conc (M) -12): 50 and 56 and 88
- HRH2 dose-response raw reporter signal (Fig. 5b source data) (HRH2; Log(10)Conc (M) -13): 44 and 77 and 100
- HRH2 dose-response raw reporter signal (Fig. 5b source data) (HRH2; Log(10)Conc (M) -14): 44 and 83 and 77
- HRH2 dose-response raw reporter signal (Fig. 5b source data) (HRH2; Log(10)Conc (M) -15): 32 and 47 and 38
- HRH1 dose-response raw reporter signal (Fig. 5b source data) (HRH1; Log(10)Conc (M) -4): 81577 and 82137
- HRH1 dose-response raw reporter signal (Fig. 5b source data) (HRH1; Log(10)Conc (M) -5): 78216 and 78255
- HRH1 dose-response raw reporter signal (Fig. 5b source data) (HRH1; Log(10)Conc (M) -6): 75259 and 78673
- HRH1 dose-response raw reporter signal (Fig. 5b source data) (HRH1; Log(10)Conc (M) -7): 76949 and 75622
- HRH1 dose-response raw reporter signal (Fig. 5b source data) (HRH1; Log(10)Conc (M) -8): 67606 and 69585
- HRH1 dose-response raw reporter signal (Fig. 5b source data) (HRH1; Log(10)Conc (M) -9): 52047 and 52194
- HRH1 dose-response raw reporter signal (Fig. 5b source data) (HRH1; Log(10)Conc (M) -10): 45399 and 45284
- HRH1 dose-response raw reporter signal (Fig. 5b source data) (HRH1; Log(10)Conc (M) -11): 44193 and 43739
- HRH1 dose-response raw reporter signal (Fig. 5b source data) (HRH1; Log(10)Conc (M) -12): 45001 and 44441
- HRH1 dose-response raw reporter signal (Fig. 5b source data) (HRH1; Log(10)Conc (M) -13): 46307 and 47693
- HRH1 dose-response raw reporter signal (Fig. 5b source data) (HRH1; Log(10)Conc (M) -14): 46469 and 45317
- HRH1 dose-response raw reporter signal (Fig. 5b source data) (HRH1; Log(10)Conc (M) -15): 42643 and 42151

Source: PMC11480411, “Mucosal sugars delineate pyrazine vs pyrazinone autoinducer signaling in Klebsiella oxytoca” (Nature Communications, 2024)
